# System: VSV-d51-GFP
# Type: cell-based
row,Structure (SMILES),amount of GFP-positive cells as an indication of VSV replication
1,Nc1ccccc1NC(=O)c1ccc(CNC(=O)OCc2cccnc2)cc1 [MS-275],increased the amount of GFP-positive cells
2,O=C(/C=C/c1cccc(S(=O)(=O)Nc2ccccc2)c1)NO [PXD101],increased the amount of GFP-positive cells
3,"O=C(CCCCCCC(=O)Nc1ccccc1)NO [SAHA, suberoylanilide hydroxamic acid]",increased the amount of GFP-positive cells
4,CCCC(CCC)C(=O)O [VPA],little to no effect

# From patent US20110044952A1, “AMPLIFICATION OF CANCER-SPECIFIC ONCOLYTIC VIRAL INFECTION BY HISTONE DEACETYLASE INHIBITORS” (Ottawa Health Research Institute, priority 2007, published 2011)
